Key:
[1] = test system: neuroendocrine tumor (NET); test: Progression-free survival of PPQ-negative subjects after PRRT or PRRT plus chemotherapy; type: in vivo, human; settings: PPQ predicted non responders; standard 4 cycle PRRT
From the text: Clinical outcomes of patients that were identified by the PPQ to be a predicted non-responder to PRRT therapy were further analyzed. […] Thus, the PPQ can be used to identify patients that require additional agents (e.g. immune-related treatments or chemotherapy) to be used with PRRT and thereby optimize outcomes.

[2] = test system: midgut NETs; settings: midgut NETs progressive on standard octreotide LAR treatment; cited from earlier work

SMILES: C[C@@H](O)[C@H](NC(=O)[C@@H]1CSSC[C@H](NC(=O)[C@@H](Cc2ccccc2)NC(=O)CN2CCN(CC(=O)[O-])CCN(CC(=O)[O-])CCN(CC(=O)[O-])CC2)C(=O)N[C@@H](Cc2ccc(O)cc2)C(=O)N[C@H](Cc2c[nH]c3ccccc23)C(=O)N[C@@H](CCCCN)C(=O)N[C@@H]([C@@H](C)O)C(=O)N1)C(=O)O.[177Lu+3] [Lutathera, ^177Lu-DOTA-Tyr^3-Thr^8-octreotide]
- median PFS [1]: 9 months
- efficacy versus high-dose octreotide [2]: more effective than high-dose octreotide somatostatin analogs
